Patent publication US20130324606A1, “Ester Derivatives of Bimatoprost Compositions and Methods” (ALLERGAN, INC., priority 2011, published 2013)

Experiments:
[1] = Formulation and stability studies; assay type: physicochemical; conditions: variations of Formulation A, 0.03% active, pH 4, 5, 6 and 7; 25, 40 and 60° C.; zero time and 80-days
Experimental: Stability over time of compounds disclosed herein was determined in formulation as a function of temperature and pH. Variations of Formulation A described herein were employed wherein the target concentration of active agent was 0.03%, and the pH was varied at pH 4, 5, 6 and 7. Temperatures of 25° C., 40° C. and 60° C. were maintained during the experiment. Samples were evaluated at zero time and 80-days.
Cmpds IVa, IIIb, and IVb for evaluated for stability.
FIGS. 1A-1B, 2A-2B, and 3A-3B depict histograms of relative concentrations of test compounds (arbitrary scale) at zero time or 80-days. FIG. 1A depicts a histogram of the stability profile of Cmpd IVa as a function of pH and temperature. FIG. 1B depicts a histogram of the formation of bimatoprost as a function of pH and temperature after 80-days for Cmpd IVa. FIG. 2A depicts a histogram of the stability profile of Cmpd IVb as a function of pH and temperature. FIG. 2B depicts a histogram of the formation of bimatoprost as a function of pH and temperature after 80-days for Cmpd IVb. FIG. 3A depicts a histogram of the stability profile of Cmpd IIIb as a function of pH and temperature. FIG. 3B depicts a histogram of the formation of bimatoprost as a function of pH and temperature after 80-days for Cmpd IIIb.

[2] = system: reconstructed human epidermis (RHE); assay: In vitro dermal irritation screening in reconstructed human epidermis; assay type: cell-based; conditions: concentration 0.03%, Formulation A vehicle
Experimental: In vitro irritation screening assays were conducted for compounds described herein. Test system was the reconstructed human epidermis (RHE), as known in the art. Single dosing was employed, and endpoints were evaluated as a function of time up to 24-hrs. Endpoints were tissue viability and IL-1α release.
Test compounds included Cmpds IVa (0.03%), IIIb (0.03%), IVb (0.03%), bimatoprost (0.03%), minoxidil (5%, foam), and minoxidil (5%, solution). Administration of Cmpds IVa, IIIb, IVb and bimatoprost employed the vehicle of Formulation A. See Table 1 above. Administration of minoxidil employed minoxidil vehicle with formulation 20% H2O, 50% propylene glycol, and 30% ethanol.

[3] = Dermal tolerability in rats; assay type: in vivo; conditions: female rats
Experimental: Female rats were administered either vehicle or one of Cmpds IVa, IIIb, or IVb daily for 8 days. The administered dose was 3 mg/kg/day, at a concentration of 3 mg/mL. Observed data were body weight, viability, food consumption, and dermal observation (skin reaction grading), as known in the art. The vehicle was Formulation A. See Table 1 above.

[4] = microAmes mutagenesis screen; assay type: cell-based; conditions: with or without metabolic activation
Excerpt: Cmpds IVa, IIIb, and IVb were subjected to the microAmes screen, as known in the art.

C57Black/6J mice = assay: Piliation (hair regrowth) studies in mice; assay type: in vivo; conditions: mouse hair regrowth
Experimental: C57Black/6J, 7-week old female mice (n=10) were employed in piliation studies. Dorsal hair was shaved (area ˜2 cm×4 cm). Dosing of active agent was once per day (QD) by topical administration for 14 days. Observations were conducted for 42-days to determine onset of new hair growth and day of hair growth completion. Compounds were formulated as either a) 50% propylene glycol, 30% ethanol, 20% water, or b) the formulation of Formulation A described above. The experiments reported for FIGS. 4A-4B, 5A-5B, 6A-6B, 8A-8B, and 9A-9B were conducted using a vehicle with formulation of 50% propylene glycol, 30% ethanol, 20% water. The experiments reported for FIGS. 7A-7B were conducted using a vehicle of Formulation A described above.
For each of FIGS. 4A, 5A, 6A, 7A, 8A and 9A, the histograms depict the day of onset of hair growth. For each of FIGS. 4B, 5B, 6B, 7B, 8B and 9B, the histograms depict the day achieving full hair growth.

[5] = Partitioning in artificial sebum; assay type: physicochemical
Experimental: Compounds bimatoprost, Cmpd IVa, and Cmpd IIIb were added to aqueous solution (1 mL, 2-20 ug/mL), with and without 1-20 mg artificial sebum. Samples were shaken for 16 hr at 37° C. Samples were then centrifuged (8000 RPM) for 15 min at room temperature, prior to collection of the aqueous solution. Samples were analyzed for concentration of compound without artificial sebum (i.e., Co) and with artificial sebum (i.e., Ci) by mass spectroscopy. Artificial sebum and water partition coefficient (Ksebum) was expressed as the concentration of drug in 1 g of artificial sebum divided by the concentration of drug in 1 g of aqueous solution, and was calculated as Ksebum=(Co−Ci)Waqueous/(Ci×Wsebum) (Eqn. 1), where W represents weight.
Artificial sebum was prepared as follows: 15% (w/w) squalene, 15% spermaceti, 10% coconut oil, 1.5% oleic acid, 5% palmitic acid, 2.4% cholesterol oleate, 10% paraffin wax, 10% olive oil, 25% cottonseed oil, 5% palmitoleic acid, 1.2% cholesterol. The melting point of the semi-liquid was 37° C.

[6] = Compound distribution in mouse skin by MALDI-MS imaging; assay type: in vivo
Experimental: In order to determine the penetration, accumulation and/or differential distribution of bimatoprost and compounds disclosed herein upon dermal administration, MALDI-MS (matrix assisted laser desorption ionization mass spectroscopy) imaging was conducted on explanted samples of mouse skin after topical dermal administration.
MALDI-MS imaging was conducted on mouse skin strips after administration of bimatoprost or compound disclosed herein once daily for 3 days. Samples of mouse skin were recovered 4 hr after day-3 dosing of compound. Dermal administration was conducted with vehicle, 0.03% bimatoprost, 3% bimatoprost, 0.03% Cmpd IVa, and 3% Cmpd IVa.
FIG. 16A depicts a typical explanted sample of mouse skin for these studies, wherein Cmpd IVa was applied via dermal administration. FIG. 16B depicts the result of MALDI-MS imaging. The intensity of each pixel within FIG. 16B reflects the concentration of Cmpd IVa at the corresponding point in the image depicted in FIG. 16A. FIG. 16C depicts a representative mass spectrum, corresponding to the region of FIG. 16B indicated by the white circle within FIG. 16B. Accordingly, each pixel of the image of FIG. 16B has an associated mass spectrum, providing the amounts of bimatoprost or other administered compound or metabolite thereof.

[7] = In vitro human skin penetration (Franz diffusion chamber); assay type: in vitro ADME; conditions: FIGS. 14A-14C, 6, 24, 48 hr
[8] = dermal 3 mg/kg/day daily for 8 days, Formulation A

stability in formulation [1]: stable in formulation
phase in which the majority of compound remains ([5]; artificial sebum / aqueous solution): remain in the aqueous phase
Ave. Ksebum (artificial sebum and water partition coefficient) ([5]; n = 4, 16 hr at 37° C.): 5.1
detectability in mouse skin by MALDI-MS imaging ([6]; after topical dermal administration at 0.03%): detectable
skin penetration of 3.0% compound compared with 3.0% bimatoprost ([6]; topical dermal administration, MALDI-MS): similar
conversion to bimatoprost in the receptor chamber solution [7]: observed to convert to bimatoprost
Compound: CCNC(=O)CCC/C=C\C[C@@H]1[C@@H](/C=C/[C@H](CCc2ccccc2)OC(C)=O)[C@H](O)C[C@@H]1O [Cmpd IVa, 15-acetyl-bimatoprost]
potential for irritation of the human skin [2]: no indication of potential for irritation
change in food consumption and body weight gain (in words) ([3]; 3 mg/kg/day daily for 8 days): no significant change in food consumption or body weight gain
dermal observation: signs of irritation ([3]; 3 mg/kg/day, days 2-4): minimal and transient signs of irritation
Body Weight Gain (g) Mean ± SD [3, 8]: 9.0 ± 3.0 g
Food Consumption (g) Mean ± SD [3, 8]: 21.14 ± 1.08 g
mutagenicity in microAmes screen [4]: not mutagenic
effectiveness of 0.03% compound compared to 0.1% to 0.3% bimatoprost (C57Black/6J mice): approximately equally effective
pharmacological efficacy relative to bimatoprost (C57Black/6J mice; vehicle 50% propylene glycol, 30% ethanol, 20% water): efficacy greater than bimatoprost
pharmacological efficacy relative to bimatoprost (C57Black/6J mice; vehicle Formulation A): efficacy greater than bimatoprost
